Experimental data from patent publication US20230278972A1, “SUBSTITUTED HALOALKYL SULFONANILIDE HERBICIDES” (FMC Corporation, priority 2020, published 2023).

Experiments:
Type in all cases: in vivo
[1] = test system: goosegrass (Eleusine indica); assay: Test A1 preemergence, goosegrass
Procedure, shortened: (§1)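 Plants grown in pots of loam/sand mix; preemergence = soil-directed spray on seeded pots, postemergence = spray at 1–2 leaves, height 2–10 cm; test chemicals formulated in non-phytotoxic solvent with surfactant.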

[2] = test system: Oat, Wild (wild oat, Avena fatua); assay: Test A1 preemergence, Oat, Wild
Procedure, shortened: as §1

[3] = test system: ragweed (common ragweed, Ambrosia artemisiifolia); assay: Test A1 preemergence, ragweed
Procedure, shortened: as §1

[4] = test system: wheat (Triticum aestivum); assay: Test A1 preemergence, wheat
Procedure, shortened: as §1

corn (Zea mays) = assay: Test A1 postemergence, corn; details: Postemergence
Procedure, shortened: as §1

[5] = test system: goosegrass (Eleusine indica); assay: Test A1 postemergence, goosegrass; details: Postemergence
Procedure, shortened: (§2)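 Seeds were first planted into a blend of loam soil and sand and given a preemergence directed soil spray. In parallel, pots of the same soil were sown for postemergence application once plants reached 2 to 10 cm and the one- to two-leaf stage. Both used surfactant-containing non-phytotoxic solvent formulations.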

kochia (Bassia scoparia) = assay: Test A1 postemergence, kochia; details: Postemergence
Procedure, shortened: as §2

[6] = test system: Pigweed, Palmer (palmer amaranth, palmer pigweed, Amaranthus palmeri); assay: Test A1 postemergence, Pigweed, Palmer; details: Postemergence
Procedure, shortened: (§3)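 Test compounds were formulated in a non-phytotoxic solvent mixture containing a surfactant. For preemergence, seeds sown in a loam soil–sand blend received a directed soil spray. For postemergence, potted plants in the same soil, 2 to 10 cm tall at the one- to two-leaf stage, were sprayed.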

[7] = test system: ragweed (common ragweed, Ambrosia artemisiifolia); assay: Test A1 postemergence, ragweed; details: Postemergence
Procedure, shortened: as §3

soybean (Glycine max) = assay: Test A1 postemergence, soybean; details: Postemergence
Procedure, shortened: as §2

[8] = 31 g ai/ha, 0 to 100 scale (0 no effect, 100 complete control)
[9] = 125 g ai/ha, 0 to 100 scale, 0 no effect, 100 complete control
[10] = 31 g ai/ha, 0 to 100 scale (0 no effect, 100 complete control), 10 days

Compound | Plant response rating, Goosegrass [1, 8] | Plant response rating, Goosegrass [1, 9] | Plant response rating, Oat, Wild [2, 8] | Plant response rating, Oat, Wild [2, 9] | Plant response rating, Ragweed [3, 8] | Plant response rating, Ragweed [3, 9] | Plant response rating, Wheat [4, 8] | Plant response rating, Wheat [4, 9] | Plant response rating, Corn (corn (Zea mays); [10]) | Plant response rating, Corn (corn (Zea mays); 125 g ai/ha, 0 to 100 scale) | Plant response rating, Goosegrass [5, 10] | Plant response rating, Goosegrass ([5]; 125 g ai/ha, 0 to 100 scale) | Plant response rating, Kochia (kochia (Bassia scoparia); [10]) | Plant response rating, Kochia (kochia (Bassia scoparia); 125 g ai/ha, 0 to 100 scale) | Plant response rating, Pigweed, Palmer [6, 10] | Plant response rating, Pigweed, Palmer ([6]; 125 g ai/ha, 0 to 100 scale) | Plant response rating, Ragweed [7, 10] | Plant response rating, Ragweed ([7]; 125 g ai/ha, 0 to 100 scale) | Plant response rating, Soybean (soybean (Glycine max); [10]) | Plant response rating, Soybean (soybean (Glycine max); 125 g ai/ha, 0 to 100 scale)
Cc1c(NS(=O)(=O)C(F)(F)F)cc(C(=O)N2CCCCC2)c(C)c1C [Compound 326] | 90 | 90 | 10 | 10 | 90 | 90 | 0 | 50 | 0 | 0 | 0 | 80 | 30 | 70 | 40 | 80 | 60 | 80 | 70 | 70
Cc1c(NS(=O)(=O)C(F)(F)F)cc(C(=O)N2CC(C)OC(C)C2)c(C)c1C (stereo not drawn) [Compound 327] | 50 | 90 | 0 | 70 | 90 | 90 | 0 | 30 | 10 | 40 | 20 | 70 | 10 | 30 | 30 | 50 | 70 | 90 | 60 | 60
Cc1c(NS(=O)(=O)C(F)(F)F)cc(C(=O)N2CC(C)OC(C)C2)c(C)c1C (stereo not drawn) [Compound 328] | 40 | 80 | 0 | 30 | 10 | 80 | 0 | 30 | 0 | 50 | 20 | 80 | 10 | 60 | 30 | 40 | 40 | 70 | 60 | 60
Cc1c(C(=O)N2CCCCC2)cc(N(COC(=O)C(C)(C)C)S(=O)(=O)C(F)(F)F)c(C)c1C [Compound 329, [[(Trifluoromethyl)sulfonyl][2,3,4-trimethyl-5-(1-piperidinylcarbonyl)phenyl]amino]methyl 2,2-dimethylpropanoate] | 20 | 100 | 0 | 0 | 60 | 70 | 0 | 0 | 0 | 0 | 0 | 30 | 10 | 20 | 10 | 10 | 40 | 70 | 60 | 60
CCOC(=O)N(c1cc(C(=O)N2CCCCC2)c(C)c(C)c1C)S(=O)(=O)C(F)(F)F [Compound 330, Ethyl N-[(trifluoromethyl)sulfonyl]-N-[2,3,4-trimethyl-5-(1-piperidinylcarbonyl)phenyl]carbamate] | 40 | 100 | 0 | 20 | 40 | 70 | 0 | 30 | 0 | 10 | 0 | 40 | 10 | 50 | 0 | 50 | 50 | 80 | 90 | 80
Cc1c(C(=O)N2C[C@@H](C)O[C@@H](C)C2)cc(N(COC(=O)C(C)(C)C)S(=O)(=O)C(F)(F)F)c(C)c1C [Compound 331] | 0 | 90 | 0 | 0 | 0 | 90 | 0 | 0 | 10 | 50 | 0 | 50 | 0 | 10 | 0 | 20 | 70 | 80 | 60 | 70
CCOC(=O)N(c1cc(C(=O)N2C[C@@H](C)O[C@@H](C)C2)c(C)c(C)c1C)S(=O)(=O)C(F)(F)F [Compound 332] | 50 | 90 | 0 | 20 | 50 | 80 | 10 | 40 | 0 | 50 | 0 | 90 | 0 | 10 | 10 | 30 | 80 | 80 | 60 | 100
Cc1c(C(=O)N2CCCCC2)cc(NS(=O)(=O)C(F)(F)F)c(Cl)c1F [Compound 333] | 80 | 80 | 20 | 40 | 0 | 70 | 0 | 50 | 0 | 0 | 0 | 30 | 30 | 70 | 40 | 60 | 0 | 80 | 30 | 80
COC1CCCN(C(=O)c2cc(NS(=O)(=O)C(F)(F)F)c(Cl)c(F)c2C)C1 (stereo not drawn) [Compound 334] | 70 | 90 | 10 | 20 | 0 | 50 | 0 | 0 | 0 | 0 | 0 | 0 | 10 | 40 | 10 | 50 | 0 | 50 | 20 | 40
